What was measured:
Assay type in all cases: cell-based
PDE3A and SLFN12 = test: Complex formation of PDE3A and SLFN12 (immunoprecipitation using anti-PDE3A antibody); details: PFSK-1 and HeLa cell lines, 1 μmol/L, 16 hours, FIG. 1
Method: In order to examine whether Compound 1 forms a complex between PDE3A and SLFN12, a binding confirmation experiment using immunoprecipitation was performed. PFSK-1 and HeLa which are cell lines expressing PDE3A and SLFN12 were treated with Compound 1 (1 μmol/L) for 16 hours, and then immunoprecipitated using anti-PDE3A antibody.

SLFN12 protein = test: Increase of SLFN12 protein (Western blot analysis); details: 1 μmol/L, 16 hours, FIG. 2
Method: In order to examine the effect of Compound 1 on the protein level of SLFN12, Western blot analysis was performed. PFSK-1, HeLa, or U-87 MG cell lines were treated with Compound 1 (1 μmol/L) for 16 hours, and SLFN12 protein in each test sample was detected.

[1] = test system: Bone marrow-derived CD34-positive cells (CD41-positive megakaryocytes); test: Inhibition of differentiation from CD34-positive cells toward megakaryocytes (HemaTox Megakaryocyte Kit, flow cytometry); details: 240 h, cultured 10 days, three donors
Method: It was studied whether Compound 1 inhibits the differentiation from CD34-positive cells toward megakaryocytes. Bone marrow-derived CD34-positive cells were cultured for 10 days in the presence and absence of Compound 1 in megakaryocyte differentiation medium (HemaTox™ Megakaryocyte Kit, STEMCELL™ Technologies) according to the kit's instruction. The number of the CD41-positive megakaryocytes was counted by flow cytometry and the cell viability relative to the untreated cell group was calculated. The test was conducted three times using CD34-positive cells derived from different donors, and the cell viability was determined with the control as 100%.

[2] = test system: Bone marrow-derived CD34-positive cells (CD71-positive and CD235-positive erythroid cells); test: Differentiation from CD34-positive cells toward erythroblasts (HemaTox Erythroid Kit, flow cytometry); details: concentrations of 100 nmol/L or lower, cultured 7 days, two donors, FIG. 4
Method: It was studied whether Compound 1 inhibits the differentiation from CD34-positive cells toward erythroblasts. Bone marrow-derived CD34-positive cells were cultured for 7 days in erythroid differentiation medium (HemaTox™ Erythroid Kit, STEMCELL™ Technologies) according to the kit's instruction. The number of the CD71-positive and CD235-positive erythroid cells were counted by flow cytometry and the cell viability relative to the untreated cell group was calculated. The test was conducted twice using CD34-positive cells derived from different donors, and the cell viability was determined with the control as 100%.

[3] = test system: Bone marrow-derived CD34-positive cells (CD13-positive and CD15-positive myeloid cells); test: Differentiation from CD34-positive cells toward myeloid cells (HemaTox Myeloid Kit, flow cytometry); details: cultured 7 days, two donors, FIG. 5
Method: It was studied whether Compound 1 inhibits the differentiation from CD34-positive cells toward myeloid cells. Bone marrow-derived CD34-positive cells were cultured for 7 days in myeloid differentiation medium (HemaTox™ Myeloid Kit, STEMCELL™ Technologies) according to the kit's instruction. The number of the CD13-positive and CD15-positive myeloid cells was counted by flow cytometry and the cell viability relative to the untreated cell group was calculated. The test was conducted twice using CD34-positive cells derived from different donors, and the cell viability was determined with the control as 100%.

C[C@@H]1CC(=O)NN=C1c1ccc(OCC(C)(C)O)c(F)c1F [Compound 1, (R)-6-(2,3-difluoro-4-(2-hydroxy-2-methylpropoxy)phenyl)-5-methyl-4,5-dihydropyridazin-3(2H)-one]
coprecipitation of SLFN12 with PDE3A (complex formation) (PDE3A and SLFN12): coprecipitation with SLFN12 was confirmed | SLFN12 protein level compared to untreated (SLFN12 protein; PFSK-1 or HeLa (highly expresses PDE3A)): increased SLFN12 protein levels were observed | SLFN12 protein level compared to untreated (SLFN12 protein; U-87 MG (hardly expresses PDE3A)): no significant, Compound 1-dependent increase in SLFN12 protein level was observed | minimal effective concentration ([1]; FIG. 3, read-out: concentration that significantly decreased the number of CD41-positive megakaryocytes): ≥ 0.003 µM | IC50 ([1]; control as 100%, 95% confidence interval 10.3-23.7 nmol/L, read-out: 50% inhibitory concentration (IC50), number of CD41-positive megakaryocytes): 17 nM | effect on differentiation from hematopoietic stem cells toward erythroid cells [2]: did not affect | effect on differentiation from hematopoietic stem cells toward myeloid cells ([3]; 30 nmol/L): inhibited | effect on differentiation from hematopoietic stem cells toward myeloid cells ([3]; 100 nmol/L): no significant difference | concentration dependence of the effect on differentiation toward myeloid cells [3]: no concentration-dependent inhibitory effect

From US20260284048A1, “INHIBITOR OF MEGAKARYOCYTE DIFFERENTIATION AND MATURATION” (OTSUKA PHARMACEUTICAL CO., LTD., priority 2023, published 2026)
